The results in this text go back to US10195179B2, “Spiro-lactam NMDA receptor modulators and uses thereof” (Aptinyx Inc., priority 2016, dated 2019).

Like-named read-outs stand apart in the source and are kept apart here.

Data set [1] can be described thus: Microsomal stability, human. It counts as in vitro ADME. Particulars: human microsomes. How it is done:
Microsomal stability for Compound AA and Compound BB was investigated. The following table indicates the percent of Compound AA and Compound BB remaining after 60 minutes.

Another data set is described as follows: Plasma stability, human. It counts as in vitro ADME. How it is done: Plasma stability for Compound AA and Compound BB was investigated. The following table indicates the percent of Compound AA and Compound BB remaining after 60 minutes.
Data set [2] is described as follows: Plasma protein binding assay, rat. The data set is classed as in vitro ADME. Particulars: read-out: Plasma Protein binding (% Bound) Plasma rat (converted). As for the experimental part:
Bound drug concentration in the brain was also investigated, and plasma protein binding assays were conducted. The following table (% bound) indicates results for Compound AA and Compound BB.

In a further data set the target is NR2D (Homo sapiens, UniProt O15399). Description: Potentiation of [3H]MK-801 binding, wild-type NMDAR2D. The arrangement: species or system rat. How it is done:
Assays were conducted as described by Moskal et al., “GLYX-13: a monoclonal antibody-derived peptide that acts as an N-methyl-D-aspartate receptor modulator,” Neuropharmacology, 49, 1077-87, 2005. The potentiation of [^3H]MK-801 binding (5 nM; 22.5 Ci/mmol) to well washed rat cortical membranes (200 μg) was measured under non-equilibrium conditions (15 min @ 25° C.) in the presence of increasing concentrations of Compound AA or Compound BB.
FIG. 2A depicts the potentiation of [^3H]MK-801 binding for wild-type NMDAR2 subtypes in the presence of Compound AA. FIG. 2B depicts the potentiation of [^3H]MK-801 binding for wild-type NMDAR2 subtypes in the presence of Compound BB. The following table depicts the results (P means potency and A means activity): […]

Another data set concerns rat. Briefly: Positive emotional learning (PEL) test, 50-kHz USVs. The data set is classed as in vivo. Particulars: administered one hour prior to PEL testing. As for the experimental part: Experiments were conducted as described in Burgdorf et al., “The effect of selective breeding for differential rates of 50-kHz ultrasonic vocalizations on emotional behavior in rats,” Devel. Psychobiol., 51:34-46 (2009).
The PEL assay measures the acquisition of positive (hedonic) 50-kHz ultrasonic vocalizations (USVs) to a social stimulus, heterospecific rough and tumble play stimulation. Heterospecific rough-and-tumble play stimulation was administered by the experimenter's right hand. Animals received 3 min of heterospecific rough-and-tumble play that consisted of alternating 15 sec blocks of heterospecific play and 15 sec of no-stimulation. High frequency ultrasonic vocalizations (USVs) were recorded and analyzed by sonogram with Avasoft SASlab Pro (Germany) as previously described by Burgdorf et al., “Positive emotional learning is regulated in the medial prefrontal cortex by GluN2B-containing NMDA receptors,” Neuroscience, 192:515-523 (2011). Frequency modulated 50-kHz USVs that occurred during each of the no-stimulation periods were quantified to measure PEL. Animals were not habituated to play stimulation before testing. Positive emotional learning was measured during the conditioned stimulus (CS) trials preceding the tickle unconditioned stimulus (UCS) trials. […] Running speed for animals to self administer tickling at the end of the 3 min session was also measured.

The test system of another data set is Sprague Dawley rats. Briefly: Porsolt forced swim test. Particulars: 1-100 μg/kg PO, 1 h post-dosing. It counts as in vivo, rat. As for the experimental part:
A non-clinical in vivo pharmacology study (Porsolt assay) was performed to measure antidepressant-like effects. A negative control (0.5% sodium carboxymethyl cellulose in 0.9% sterile saline vehicle) and a positive control (Compound C) were used to compare against Compound BB. The study allowed for the construction of a dose-response curve of the effects of each compound on the Porsolt forced swim test as assessed by the rats' response (reduced floating time) during a 5-minute swimming test.
Male 2-3 month old Sprague Dawley rats were used (Harlan, Indianapolis, Ind.). Rats were housed in Lucite cages with aspen wood chip bedding, maintained on a 12:12 light:dark cycle (lights on at 5 AM), and given ad libitum access to Purina lab chow (USA) and tap water throughout the study.
The Porsolt forced swim test adapted for use in rats was performed as described by Burgdorf et al., (The long-lasting antidepressant effects of rapastinel (GLYX-13) are associated with a metaplasticity process in the medial prefrontal cortex and hippocampus. Neuroscience 308:202-211, 2015). Animals were placed in a 46 cm tall×20 cm in diameter clear glass tube filled to 30 cm with tap water (23±1° C.) for 15 min on the first day (habituation) and 5 min on the subsequent test day. Animals were tested 1 h post-dosing with the compound BB, positive control (Compound C, 10 μg/kg), or vehicle (0.5% sodium carboxymethyl cellulose (Na-CMC) in 0.9% sterile saline). Water was changed after every other animal. Animals were videotaped, and floating time as defined as the minimal amount of effort required to keep the animals head above water was scored offline by a blinded experimenter with high inter-rater reliability (Pearson's r >0.9).
The maximally efficacious dose was defined as the lowest dose that was statistically different from vehicle but statistically equivalent (per Fisher's PLSD) to the higher doses. […]
Compound AA was assessed in a second set of animals at a single dose at 1 h post-administration and in a third set of animals at 24 h post-administration (FIG. 9B). […]

NR2D, sequence (O15399 28-1336, species assumed, other chains not shown): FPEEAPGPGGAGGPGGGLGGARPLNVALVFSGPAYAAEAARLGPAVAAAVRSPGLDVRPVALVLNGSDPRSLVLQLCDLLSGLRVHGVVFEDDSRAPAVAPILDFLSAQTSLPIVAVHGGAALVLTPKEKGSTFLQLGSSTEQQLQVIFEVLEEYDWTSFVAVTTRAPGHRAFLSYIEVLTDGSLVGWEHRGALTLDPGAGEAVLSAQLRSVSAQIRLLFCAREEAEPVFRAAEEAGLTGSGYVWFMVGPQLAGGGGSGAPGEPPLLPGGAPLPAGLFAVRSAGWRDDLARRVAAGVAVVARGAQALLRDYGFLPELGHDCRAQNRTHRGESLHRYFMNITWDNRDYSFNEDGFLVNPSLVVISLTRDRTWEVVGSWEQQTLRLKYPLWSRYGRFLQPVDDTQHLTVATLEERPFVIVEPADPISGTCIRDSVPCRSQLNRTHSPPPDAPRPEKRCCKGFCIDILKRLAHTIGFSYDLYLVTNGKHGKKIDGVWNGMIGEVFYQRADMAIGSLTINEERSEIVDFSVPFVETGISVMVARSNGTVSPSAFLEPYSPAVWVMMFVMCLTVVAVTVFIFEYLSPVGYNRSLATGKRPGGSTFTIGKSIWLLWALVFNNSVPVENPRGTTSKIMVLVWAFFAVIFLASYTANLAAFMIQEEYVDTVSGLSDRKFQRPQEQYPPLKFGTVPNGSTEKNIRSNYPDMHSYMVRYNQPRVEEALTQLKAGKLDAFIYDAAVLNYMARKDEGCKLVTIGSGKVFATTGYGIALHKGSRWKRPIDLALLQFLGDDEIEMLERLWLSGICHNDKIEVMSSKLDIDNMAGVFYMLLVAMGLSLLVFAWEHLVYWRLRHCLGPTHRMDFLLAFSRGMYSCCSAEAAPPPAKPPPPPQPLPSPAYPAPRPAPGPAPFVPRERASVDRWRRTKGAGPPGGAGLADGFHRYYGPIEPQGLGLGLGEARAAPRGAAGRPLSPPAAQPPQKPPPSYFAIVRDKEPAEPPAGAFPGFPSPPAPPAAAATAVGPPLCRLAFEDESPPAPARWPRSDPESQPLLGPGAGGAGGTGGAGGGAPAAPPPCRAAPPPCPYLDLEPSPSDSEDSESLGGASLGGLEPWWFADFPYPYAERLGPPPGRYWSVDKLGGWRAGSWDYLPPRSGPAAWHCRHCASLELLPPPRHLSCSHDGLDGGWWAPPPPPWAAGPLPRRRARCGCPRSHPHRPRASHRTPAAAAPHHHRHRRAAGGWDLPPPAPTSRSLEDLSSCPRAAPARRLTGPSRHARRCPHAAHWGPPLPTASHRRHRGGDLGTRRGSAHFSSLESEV

For the compound `C[C@@H](O)[C@@H](C(N)=O)N1C[C@@]2(CCCN2S(C)(=O)=O)C1=O` [Compound BB, (2S,3R)-3-hydroxy-2-((S)-5-(methylsulfonyl)-1-oxo-2,5-diazaspiro[3,4]octan-2-yl)butanamide], in data set [1], the “Microsomal Stability (% remaining at 60 min) Human” value came out at 92%. Further, in the data set “Plasma stability, human”, the “Plasma Stability (% remaining at 60 min) Human” value was 81%. Also, the fraction unbound in data set [2] is 0.65. In addition, the “NR2D A (%) (activity)” value on NR2D (potentiation of [3H]MK-801 binding) was 57.41%. The EC50 was 5.62e-11 M at NR2D (potentiation of [3H]MK-801 binding, 0 = no activity, read-out: NR2D P (M) (potency) (converted)) and 5.62e-11 M at NR2D (wild-type NMDAR2D, read-out: NMDAR2D BINDING PROFILE −logEC50 (converted)). The “NMDAR2D BINDING PROFILE % 1 mM Glycine” value on NR2D (relative to 1 mM glycine) is given as 57.41%. For the same compound, on NR2D (statement in description), the “binding to NR2D (in words)” value is “binds”. Further, the “NMDAR2D BINDING PROFILE Conclusion” value at NR2D (wild-type NMDAR2D) was “WT2D agonist”. Besides, in the data set on rat, the “positive emotional learning as measured by rat USVs” value is on record as “increases positive emotional learning”. Also, in the data set on Sprague Dawley rats, the “floating time in the Porsolt test” value is listed as “produces an antidepressant-like effect as measured by decreased floating time”.
